In patent publication US20210214341A1, “SUBSTITUTED PYRIDINYL AZETIDINONE DERIVATIVES FOR USE IN TREATING CANCER AND OTHER DISEASES” (The Board of Regents of the University of Texas System, priority 2018, published 2021):
Read-outs that look alike come from different tables or passages of the source.

How the values were obtained:
PANC-1 cells [1] = test: Annexin V assay to determine apoptosis; format: cell-based, human; conditions: 0.5, 1, and 2 μM, 16 hrs
Procedure: Cell death was identified as apoptosis through Annexin V assay. For this study, PANC-1, the most commonly known drug-resistance pancreatic cancer cell line was used. […] Error bars show standard deviation (n=3). For optimal throughput, final cell concentrations were maintained between 2×10^4 and 1×10^5 cells/well (or 1×10^5 to 5×10^5 cells/mL). Doxorubicin was used as control at a concentration of 5 μM for 16 hrs. For this study, PANC-1, the most commonly known drug-resistance pancreatic cancer cell lines were used. […] Error bars show standard deviation (n=3). For optimal throughput, final cell concentrations were maintained between 2×10^4 and 1×10^5 cells/well (or 1×10^5 to 5×10^5 cells/mL). Doxorubicin was used as a control at a concentration of 5 uM for 16 hrs (FIG. 5). Apoptosis was identified as the mechanism of cell death.

[2] = system: normal pancreatic ductal epithelial cells (ATCC CRL-4038); test: SRB (Sulforhodamine B) assay in normal pancreatic ductal epithelial cells; format: cell-based; conditions: Epithelial cell; 2D-culture, SRB, average of 3 runs; read-out: IC50 (NPC)
Procedure: (§1) FIGS. 1A-1B show the IC50 curves of the twelve investigational β-lactams in pancreatic cancer cells PANC-1 (ATCC CRL-1469) and normal pancreatic ductal epithelial cells (ATCC CRL-4038). The GraphPad Prism software was used to process the results. The IC50 values were determined by SRB (Sulforhodamine B) assay following standard procedure. PANC-1 cells were plated in 96 well plates and treated with 1, 10, 100, 1000 and 10,000 nM of each of the drugs in triplicate for 72 hrs. Cells were fixed, washed and stained with SRB dye, the stained cells were washed, and the dye solubilized. It was read using a plate reader at 565 nm. The IC50 values were calculated assuming that the 10 μM sample has reached saturation. Following similar way, IC50 values were determined for normal pancreatic ductal epithelial cells.
(§2) As mentioned earlier, PANC-1 is referred to generically as the “gold standard of pancreatic cancers” representing as it does almost total resistance to GEM, the first line treatment currently used in clinical situations. Pancreatic cancer cells PANC-1 (ATCC CRL-1469) and normal pancreatic ductal epithelial cells (ATCC CRL-4038) were used in this study. The GraphPad Prism software was used to process the results. […] Cells were fixed, washed and stained with SRB dye, the stained cells were washed, and the dye solubilized. It was read using a plate reader at 565 nm. The IC50 values were calculated assuming that the 10 μM sample has reached saturation. Following similar way, IC50 values were determined for normal pancreatic ductal epithelial cells.

HS 766T = test: Cytotoxicity IC50 in HS 766T cells; format: cell-based; conditions: Homo sapiens, Hs766T; HS 766T cell line; read-out: IC50 (mean ± standard error)
Excerpt: (§3) B. Cytotoxicity Studies: Determination of IC50 Values (Single Run) in Capan-2, HPAC. HPAF-II, and HS766T Cell Lines
(§4) Capan-2, HPAC. HPAF-H, and HS766T. The compounds A, D, E, G, and H were chosen randomly, out of twelve β-laclam molecules, to carry out this evaluation.

HPAF-II = test: Cytotoxicity IC50 in HPAF-II cells; format: cell-based; conditions: Homo sapiens; HPAF-II cell line; read-out: IC50 (mean ± standard error)
Excerpt: as §3, §4

[3] = system: Phospho-Histone H2A.X (Ser139) in PANC-1 cells; test: ICC-IF with Phospho-Histone H2A.X (Ser139) (γ-H2AX staining); format: cell-based, human; conditions: 1 μM, compared to control
Excerpt: This immunocytochemistry-immunofluorescence (ICC-IF) with Phospho-Histone H2A.X (Ser139) assay enables the quantitative detection of the histone variant H2AX, phosphorylated on serine 139. This modification serves as a sensitive biomarker for the detection of such breaks, localizing the site of DNA repair. Gamma-H2AX triggers cell cycle arrest and DNA damage response repair, and this assay is used to study genome stability, the cell cycle, DNA repair, and it serves as a biomarker for cancer and offers enhanced convenience over other immunoassay technologies. The PANC-1 cells were grown, treated with 1 μM concentration of the compound “D”, fixed and strained directly in chamber slides. Cells were submerged with blocking buffer for 60 min and then incubated with primary antibody Phospho-Histone H2A.X (Ser139) for overnight at 4° C. Then the cells were rinsed for three times in 1×PBS for 5 min each. The specimen was incubated in fluorochrome-conjugated secondary antibody diluted in antibody dilution buffer for 1-2 h at room temperature in the dark and then rinsed for three times in 1×PBS for 5 min each. […]
This assay was also performed with the compound D, prior to the determination of IC50 values in normal pancreatic ductal epithelial cell lines. This assay enables the quantitative detection of the histone variant H2AX, phosphorylated on serine 139. […]

[4] = system: pancreatic cancer cells PANC-1 (ATCC CRL-1469); test: SRB (Sulforhodamine B) assay in PANC-1 cells; format: cell-based; conditions: Homo sapiens, PANC-1
Procedure: as §1, §2

PANC-1 cells [5] = test: BrdU incorporation immunostaining; format: cell-based, human; conditions: compared to control
Procedure: BrdU (5-bromo-2′-deoxyuridine) incorporation to proceed with immunostaining coverslip slides with Prolong® Gold Antifade reagent were visualized under microscope. Alexa Fluor® 488 (green) was used for BrdU staining along with nuclear marker DAPI (blue). BrdU images were co-localized with nuclear marker DAPI blue.
Diluted BrdU in fresh, pre-warmed growth medium to a final concentration of 0.03 mg/mL. This mixture was added to cells and incubated at 37° C. for 30 min. The medium was aspirated; cells were completely covered with 70% ethanol for 5 min. The fixative was aspirated and the cells were rinsed three times in 1×PBS for 5 min each. Therefore, 1.5 mL HCl and incubated for 30 min at room temperature. Then the HCl was aspirated and rinsed to times in 1×PBS for 5 min each. Subsequent proceeding for immunostaining followed the below steps: The cells were submerged with blocking buffer for 60 min and subsequently incubated with primary antibody (BrdU Mouse mAb) for overnight at 4° C. Therefore, the cells were rinsed three times in 1×PBS for 5 min each and incubated in fluorochrome-conjugated secondary antibody diluted in antibody dilution buffer for 1-2 h at room temperature in the dark and then rinsed for three times in 1×PBS for 5 min each. Coverslip slides with Prolong® Gold Antifade reagem were visualized under microscope. […]

[6] = system: drug-resistant pancreatic cancer cell lines; test: IC50 against drug-resistant pancreatic cancer cell lines; format: cell-based; conditions: Homo sapiens, range over cell lines
CaPan-2 = test: Cytotoxicity IC50 in CaPan-2 cells; format: cell-based; conditions: Homo sapiens; CaPan-2 cell line; read-out: IC50 (mean ± standard error)
Excerpt: as §3, §4

HPAC = test: Cytotoxicity IC50 in HPAC cells; format: cell-based; conditions: Homo sapiens; HPAC cell line; read-out: IC50 (mean ± standard error)
Excerpt: as §3, §4

PANC-1 cells [7] = test: Flow cytometric cell cycle analysis; format: cell-based, human; conditions: tested for 24, 48 and 72 hrs
Procedure: The noise was cleared. […] After 72 hrs all the cells (including floaters) were collected, the adhered cells were trypsinized and collected as well. The cells were then centrifuged in a 50 mL centrifuge tube. The pellet was washed with PBS and reconstituted in 500 μL PBS. The cells were then fixed in ice cold ethanol by adding the ethanol dropwise while gently vortexing the cells. Stored at 4° C. for overnight. The cells were then centrifuged, and the pellet reconstituted in Guava cell cycle reagent and analyzed in a Guava flow cytometer. A similar experiment was conducted with normal pancreatic ductal epithelial cells (NPC) and the drug treatment was done according to the IC50 values observed in the 2D assay conducted on them (Table E). Please note that 2N represents G0/G1 and 4N for G2 phases.
After 72 hrs all the cells (including floaters) were collected, the adhered cells were trypsinized and collected as well. The cells were then centrifuged in a 50 mL centrifuge tube. The pellet was washed with PBS and reconstituted in 500 μL PBS. The cells were then fixed in ice cold ethanol by adding the ethanol dropwise while gently vortexing the cells. […] The cells were then centrifuged, and the pellet reconstituted in Guava cell cycle reagent and analyzed in a Guava flowcytometer. […] First set of data with PANC-1 cells were analyzed by using FlowJo software, the noise was cleared (FIG. 3). […]

PANC-1 tumorspheres = test: 3D-tumorsphere formation assay; format: cell-based, human
Procedure: Number of tumorspheres formed can be used to distinguish the efficacy of different anticancer drugs in a more physically acceptable method than 2D culture. Based on selectivity and toxicity towards PANC-1 cells in comparison to normal pancreatic ductal epithelial cells (Table D), six compounds (A, B, C, E, F, and G) were chosen for the 3D-tumorsphere formation assay. The assay was carried out by following the protocol developed by Johnson et al., (2013). PANC-1 cells (5000) were plated as single cells in Corning ultra-low attachment 24 well plates in 0.5 ml DMEM+10% FBS. The cells were grown in a humidified atmosphere of 5% CO2 for 168 hrs. 0.1 ml Media was added on 72nd and 144 hrs. The β-lactams were dissolved in DMSO and maintained at −20° C. On the day of assay, on the addition of media, the drugs were freshly diluted in media. The final concentrations of drugs were 0, 1 nM, 10 nM, 100 nM, 1 uM, 10 μM. After 144 hours the total number tumorspheres that were larger than 100 micrometers were counted in a field of 1 mm×1 mm at 10× magnification in a bright field microscope. The data was plotted and the IC50 value was calculated.
3D-tumorsphere formation assay is considered to be a fast and economical intermediary step between in vitro and in vivo biological evaluations. A tumorsphere is a solid, spherical formation developed from the proliferation of a single cancer stem/progenitor cell in 3D culture. These cells are easily distinguishable from single or aggregated as they appear to become fused together and individual cells cannot be appearing to become fused together and individual cells cannot be identified. The size can vary from less than 50 micrometers to 250 micrometers. The number of tumorspheres formed can be used to characterize the cancer stem cell population within different in vitro cultured cancer cell lines. The number of tumorspheres formed can also be used to distinguish the efficacy of different anticancer drugs in a more physically acceptable method than 2D culture. Based on selectivity and toxicity towards PANC-1 cells in comparison to normal pancreatic ductal epithelial cells (Table D), six compounds (A, B, C, E, F, and G) were chosen for the 3D-tumorsphere formation assay. The assay was carried out by following the protocol developed by Johnson et al., (2013). […] The below steps were followed to accomplish the assay. • 5000 PANC-1 cells were plated as single cells in Corning ultra-low attachment 24 well plates in 0.5 ml DMEM+10% FBS. • Cells were grown in a humidified atmosphere of 5% CO2 for 168 hrs. 0.1 ml Media was added on 72nd and 144 hrs. • Drugs were dissolved in DMSO and maintained at −20° C. On the day of assay, on the addition of media, the drugs were freshly diluted in media. • The final concentrations of drugs were 0, 1 nM, 10 nM, 100 nM, 1 μM, 10 μM. • After 144 hrs the total number tunorspheres that were larger than 100 micrometers were counted in a field of 1 mm×1 mm at 10× magnification in a bright field microscope. The data was plotted and the IC50 value was calculated.

[8] = 2D-culture, SRB, 72 hrs, average of 3 runs, read-out: IC50 (PANC-1)

Question: Which “mechanism of cell death” value (PANC-1 cells [1]) does the source give for `O=C1[C@@H](OS(=O)(=O)C2CCC2)[C@H](c2ccc(F)cn2)N1c1cc2c3ccccc3ccc2c2ccccc12` (racemic) [D, (±)-Trans-N-(chrysen-6-yl)-2-(5-fluoropyridin-2-yl)-4-oxoazetidin-3-yl cyclobutanesulfonate] here?
Answer: The value was “Apoptosis”.

Question: What about the IC50 [2] of the same compound?
Answer: Its IC50 is 60.8 nM.

Question: And the IC50 (HS 766T)?
Answer: The IC50 was 730 ± 400 nM.

Question: What about the IC50 (HPAF-II) of the same compound?
Answer: The IC50 was 1390 ± 400 nM.

Question: What about the “γ-H2AX (phospho-H2AX) staining” value [3] of the same compound?
Answer: Its value is “positive staining”.

Question: What about the IC50 [4, 8] of the same compound?
Answer: Its IC50 is 118 nM.

Question: And the “rate of DNA replication and subsequent cell proliferation (BrdU incorporation)” value (PANC-1 cells [5])?
Answer: Its value is “significantly low”.

Question: How did the IC50 [6] turn out when `Nc1ccn([C@@H]2O[C@H](CO)[C@@H](O)C2(F)F)c(=O)n1` [Gemcitabine, reference compound] was run?
Answer: The IC50 was ≥ 16000 nM.

Question: What about the IC50 (CaPan-2) of the same compound?
Answer: The IC50 was > 50000 nM.

Question: What about the IC50 (HPAC) of the same compound?
Answer: Its IC50 is > 50000 nM.

Question: And the IC50 (HS 766T)?
Answer: The IC50 was 16300 ± 600 nM.

Question: And the IC50 (HPAF-II)?
Answer: Its IC50 is > 50000 nM.

Question: What about the IC50 [4, 8] of the same compound?
Answer: Its IC50 is 37900 nM.

Question: And the IC50 ([4]; in vitro, triplicate, read-out: PANC-1 cell lines IC50)?
Answer: The IC50 was 37900 nM.

Question: With `CS(=O)(=O)O[C@@H]1C(=O)N(c2cc3c4ccccc4ccc3c3ccccc23)[C@H]1c1ccc(F)cn1` (racemic) [A, (±)-Trans-N-(chrysen-6-yl)-2-(5-fluoropyridin-2-yl)-4-oxoazetidin-3-yl methanesulfonate] as the compound, how does the IC50 (CaPan-2) read?
Answer: Its IC50 is > 10000 nM.

Question: What about the IC50 [2] of the same compound?
Answer: The IC50 was 449 nM.

Question: What about the IC50 (HPAC) of the same compound?
Answer: The IC50 was > 10000 nM.

Question: And the IC50 (HS 766T)?
Answer: The IC50 was 240 ± 380 nM.

Question: What about the IC50 (HPAF-II) of the same compound?
Answer: Its IC50 is 980 ± 380 nM.

Question: What about the “time of maximum cell cycle blockage” value (PANC-1 cells [7]) of the same compound?
Answer: Its value is 72 h.

Question: What about the IC50 [4, 8] of the same compound?
Answer: Its IC50 is 21.2 nM.

Question: And the “activity in 3D-tumorsphere formation assay compared with 2D-culture” value (PANC-1 tumorspheres)?
Answer: Its value is “higher activity in 3D-tumorphere formation assay than 2D-culture”.

Question: And the IC50 (PANC-1 tumorspheres; Homo sapiens, tumorspheres larger than 100 micrometers counted after 144 hrs)?
Answer: The IC50 was 18.1 nM.
